One data set has as its system CCL-1 cell line. Nature of the data set: Live-cell imaging with Hoechst for apoptosis detection. Type of data set: cell-based. To be noted: positive control, 5 to 72 h. As for the experimental part:
Cell suspension was seeded in the same manner as for MTT, but 50 µL per well in 96-well clear bottom plates. […] For the hypertonic buffer, the exposure time was 2 h, and the cells were plated at twice the concentration as for the MTT and cytopathic tests in order to comply with the kit protocol.
At least two wells were seeded as replicates, and at least two photographs were taken for all samples and treatments, stained with dyes or not.

For the next data set, the system named is CCL-1 and HGF cells. Nature of the data set: Western blot for autophagy proteins Atg5, Atg7, LC3A/B. Format: cell-based. To be noted: 24 h; erufosine 30 µM, HirDM90 IC50. How it is done: For Western blot, CCL-1 and HGF cell lines were chosen, and they were seeded in either 6-well plates or 55 mm Petri dishes suitable for cell culture. They were treated with an exposure time of 24 h in an incubator (Panasonic MCO-18AC, Panasonic Healthcare Ltd., […], Japan). […] Hans-Jörg Eibl. In addition, a higher concentration of an […] added to one of the tests for comparison. The samples were trypsinized, collected, washed with PBS (TS1101, HiMedia, Mumbai, India), centrifuged, and frozen at -80 °C if storage was necessary. Then they were lysed on ice with a buffer containing 100 mM Tris-HCl (648313, Sigma-Aldrich, St. Louis, MO, USA) at pH 8.0, 4% sodium dodecyl sulfate (SDS, […], Sigma-Aldrich), 20% glycerol (49779, Sigma-Aldrich), 1% Na3VO4 (450243, Sigma-Aldrich), 200 mM dithiothreitol (DTT, 3483-12-3, Sigma-Aldrich, Burlington, MA, USA) supplemented with protease inhibitor (05892970001, Roche). The cell lysate was heated to boiling for 15 min, then centrifuged at 13,000 rpm for 10 min at 4 °C. Lysates were subjected to denaturing SDS polyacrylamide gel electrophoresis on acrylamide 4-20% gradient Mini-PROTEAN® TGXTM Stain-Free gels (4568094, Bio-Rad Laboratories, Hercules, CA, USA). […] Densitometric calculation and analysis was performed with Quantity One software version 4.6.9 (Bio-Rad Laboratories).
Background: Immunoblotting shows a protein as a band on a membrane.

Another data set has as its system breast cancer cell line. Also noted: method as in PMID 26865836. To be noted: 24 h, ref [93]; cited from earlier work.
Another data set relates to unspecified fibroblasts. The conditions noted are these: up to 30 μg/mL for 24 h, ref [93]; cited from earlier work.

Take `COc1cccc2c1C(=O)c1c(O)c3c(c(O)c1C2=O)C[C@@](O)(C(C)=O)C[C@@H]3O[C@H]1C[C@H](N)[C@H](O)[C@H](C)O1` [daunorubicin, reference compound]: the “Highly condensed and shrunken nuclei (marker of apoptosis)” value with CCL-1 cell line is on record as “not in samples treated with daunorubicin”.

For `CCCCCCCC/C=C\CCCCCCCCCCCCOP(=O)([O-])OCC[N+](C)(C)C` [erufosine], the “Conversion of LC3A/B to the lower migrating form” value in the data set with CCL-1 and HGF cells is on record as “converted to the lower migrating form visibly”. Turning to `Cc1cc(O)c2c(=O)c3c(O)cc(O)c4c5c(O)cc(O)c6c(=O)c7c(O)cc(C)c8c1c2c(c34)c(c78)c65` [hypericin], the “IC50 for a breast cancer cell line” value in the data set on breast cancer cell line is 5 µg/mL. Moreover, the “Effect on cell survival of fibroblasts” value in the data set on unspecified fibroblasts is on record as “did not have a significant effect”.

Values taken from publication PMC12566971, “Polyprenylated Acylphloroglucinols from Hypericum rochelii and Hypericum olympicum—Cytotoxic Effects on Non-Tumorigenic Cell Lines and Antibacterial Potential” (Pharmaceuticals, 2025).
